Source: ChEMBL document CHEMBL4359905, “Discovery, structural insight, and bioactivities of BY27 as a selective inhibitor of the second bromodomains of BET proteins” (Eur J Med Chem, 2019)

How the values were obtained:
[1] = target: T1, Bromodomain-containing protein 4 (Homo sapiens, UniProt O60885); assay: Binding affinity to human recombinant BRD4 BD2 (333 to 460 residues) by fluorescence polarization assay
MV4-11 [2] = assay: Antiproliferative activity against human MV4-11 cells assessed as cell growth inhibition after 4 days by CCK8 assay; format: functional, cell-based; conditions: MV4-11, 96 h
[3] = target: T2, Bromodomain-containing protein 3 (Homo sapiens, UniProt Q15059); assay: Binding affinity to human recombinant BRD3 BD2 (306 to 417 residues) by fluorescence polarization assay
Target sequence in this assay (Q15059 whole entry, the tested form may be a part): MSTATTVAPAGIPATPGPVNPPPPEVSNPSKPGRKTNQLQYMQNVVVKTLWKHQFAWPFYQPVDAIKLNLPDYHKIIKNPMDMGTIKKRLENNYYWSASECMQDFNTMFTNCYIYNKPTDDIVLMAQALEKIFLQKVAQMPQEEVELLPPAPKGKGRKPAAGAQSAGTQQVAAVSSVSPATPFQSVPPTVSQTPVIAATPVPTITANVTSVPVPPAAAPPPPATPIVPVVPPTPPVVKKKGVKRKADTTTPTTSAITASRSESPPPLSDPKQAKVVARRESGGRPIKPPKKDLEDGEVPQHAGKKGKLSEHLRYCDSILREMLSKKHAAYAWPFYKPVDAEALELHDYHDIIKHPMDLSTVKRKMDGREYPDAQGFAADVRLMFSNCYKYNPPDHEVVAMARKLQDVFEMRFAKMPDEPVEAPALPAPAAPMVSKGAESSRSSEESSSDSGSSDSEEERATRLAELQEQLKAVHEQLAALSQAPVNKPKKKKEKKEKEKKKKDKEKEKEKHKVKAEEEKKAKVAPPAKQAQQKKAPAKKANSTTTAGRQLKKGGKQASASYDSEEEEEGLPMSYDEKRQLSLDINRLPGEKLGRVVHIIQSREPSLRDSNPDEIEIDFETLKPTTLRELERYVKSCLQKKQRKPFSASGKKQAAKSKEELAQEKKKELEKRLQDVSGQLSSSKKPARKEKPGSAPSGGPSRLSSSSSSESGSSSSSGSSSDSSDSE

[4] = target: T3, Bromodomain-containing protein 2 (Homo sapiens, UniProt P25440); assay: Binding affinity to human recombinant BRD2 BD1 (72 to 205 residues) by fluorescence polarization assay
Target sequence in this assay (P25440 whole entry, the tested form may be a part): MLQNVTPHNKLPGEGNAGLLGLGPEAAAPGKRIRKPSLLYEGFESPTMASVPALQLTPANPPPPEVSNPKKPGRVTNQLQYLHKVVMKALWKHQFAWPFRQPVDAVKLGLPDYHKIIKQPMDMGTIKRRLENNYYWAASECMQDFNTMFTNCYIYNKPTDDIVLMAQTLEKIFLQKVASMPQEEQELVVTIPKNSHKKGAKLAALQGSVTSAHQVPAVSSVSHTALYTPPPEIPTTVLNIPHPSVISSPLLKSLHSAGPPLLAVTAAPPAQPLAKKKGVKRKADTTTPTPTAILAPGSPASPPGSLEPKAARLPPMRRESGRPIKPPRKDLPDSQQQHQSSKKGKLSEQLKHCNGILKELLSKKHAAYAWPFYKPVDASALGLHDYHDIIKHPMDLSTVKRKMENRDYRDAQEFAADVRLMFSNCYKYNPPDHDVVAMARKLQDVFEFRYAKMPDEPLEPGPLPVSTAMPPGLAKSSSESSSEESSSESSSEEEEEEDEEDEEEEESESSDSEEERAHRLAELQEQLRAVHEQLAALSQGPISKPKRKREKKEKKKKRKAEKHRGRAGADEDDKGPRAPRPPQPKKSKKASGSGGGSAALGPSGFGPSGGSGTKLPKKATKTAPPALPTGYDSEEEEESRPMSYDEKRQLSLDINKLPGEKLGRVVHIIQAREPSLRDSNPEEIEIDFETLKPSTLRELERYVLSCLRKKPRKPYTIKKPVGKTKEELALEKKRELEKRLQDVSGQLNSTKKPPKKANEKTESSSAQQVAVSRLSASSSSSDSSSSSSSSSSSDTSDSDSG

[5] = target: T2, Bromodomain-containing protein 3; assay: Binding affinity to human recombinant BRD3 BD1 (24 to 144 residues) by fluorescence polarization assay
Target sequence in this assay (Q15059 whole entry, the tested form may be a part): as the sequence (Q15059 whole entry, the tested form may be a part) above

[6] = target: T2, Bromodomain-containing protein 3; assay: Selectivity index, ratio of Ki for human recombinant BRD3 BD1 (24 to 144 residues) to Ki for human recombinant BRD3 BD2 (306 to 417 residues)
Target sequence in this assay (Q15059 2-726 limits assumed): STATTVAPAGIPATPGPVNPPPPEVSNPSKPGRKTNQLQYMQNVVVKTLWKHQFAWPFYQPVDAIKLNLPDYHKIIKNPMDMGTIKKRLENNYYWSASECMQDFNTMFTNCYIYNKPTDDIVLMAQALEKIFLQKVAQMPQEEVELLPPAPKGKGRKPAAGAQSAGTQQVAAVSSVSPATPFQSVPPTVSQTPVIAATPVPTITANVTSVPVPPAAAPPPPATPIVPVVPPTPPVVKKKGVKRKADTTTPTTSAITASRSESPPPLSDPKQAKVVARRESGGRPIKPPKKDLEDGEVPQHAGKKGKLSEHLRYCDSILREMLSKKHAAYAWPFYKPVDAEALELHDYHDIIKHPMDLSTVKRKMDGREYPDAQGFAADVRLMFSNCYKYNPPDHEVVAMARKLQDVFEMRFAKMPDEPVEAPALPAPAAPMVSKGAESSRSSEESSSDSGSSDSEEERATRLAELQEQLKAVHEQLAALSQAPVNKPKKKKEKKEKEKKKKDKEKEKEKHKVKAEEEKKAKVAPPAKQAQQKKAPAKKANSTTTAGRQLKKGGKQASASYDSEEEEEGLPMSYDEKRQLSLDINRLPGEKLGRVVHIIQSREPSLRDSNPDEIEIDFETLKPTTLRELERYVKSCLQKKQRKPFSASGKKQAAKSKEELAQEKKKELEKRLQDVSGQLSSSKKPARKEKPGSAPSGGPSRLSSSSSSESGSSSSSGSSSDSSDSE

MM1.S = assay: Antiproliferative activity against human MM1S cells assessed as cell growth inhibition after 4 days by CCK8 assay; format: functional, cell-based; conditions: 96 h
[7] = target: T3, Bromodomain-containing protein 2; assay: Binding affinity to human recombinant BRD2 BD2 (349 to 460 residues) by fluorescence polarization assay
Target sequence in this assay (P25440 whole entry, the tested form may be a part): as the sequence (P25440 whole entry, the tested form may be a part) above

[8] = target: T1, Bromodomain-containing protein 4; assay: Binding affinity to human recombinant BRD4 BD1 (44 to 168 residues) by fluorescence polarization assay
MV4-11 [9] = assay: Increase in p21 protein expression in human MV4-11 cells incubated for 24 hrs by western blot analysis; format: functional, cell-based
MV4-11 [10] = assay: Decrease in c-Myc protein expression in human MV4-11 cells incubated for 24 hrs by western blot analysis; format: functional, cell-based
MV4-11 [11] = assay: Upregulation of p21 mRNA expression in human MV4-11 cells after 24 hrs by qRT-PCR analysis; format: functional, cell-based
HepG2 [12] = assay: Downregulation of […] in human HepG2 cells after 4 hrs by qRT-PCR analysis; format: functional, cell-based
MV4-11 [13] = assay: Downregulation of cMyc mRNA expression in human MV4-11 cells after 24 hrs by qRT-PCR analysis; format: functional, cell-based
HepG2 [14] = assay: Downregulation of ARID5B in human HepG2 cells after 4 hrs by qRT-PCR analysis; format: functional, cell-based
HepG2 [15] = assay: Downregulation of G6PC in human HepG2 cells after 4 hrs by qRT-PCR analysis; format: functional, cell-based
[16] = target: T4, Bromodomain testis-specific protein (Homo sapiens, UniProt Q58F21); assay: Selectivity ratio Kd for human partial length BRDT bromodomain 1 isoform b (N21 to E137 residues) expressed in bacterial expression system to Kd for human partial length BRDT bromodomain 2 isoform b (K250 to E382 residues) expressed in bacterial expression system
[17] = target: T1, Bromodomain-containing protein 4; assay: Selectivity ratio of Kd for human partial length BRD4 BD1 isoform long (N44 to E168 residues) expressed in bacterial expression system to Kd for human partial length BRD4 BD2 isoform long (K333 to E460 residues) expressed in bacterial expression system
[18] = Clearance in ICR mouse at 5 mg/kg, iv measured upto 24 hrs by LC-MS/MS analysis; format: ADME, organism-based; conditions: in vivo
[19] = AUC (0 to t) in ICR mouse at 5 mg/kg, iv measured upto 24 hrs by LC-MS/MS analysis; format: ADME, organism-based; design: dose 5 mg/kg, time < 24 hr, route intravenous; conditions: in vivo
[20] = target: T4, Bromodomain testis-specific protein; assay: Binding affinity to human partial length BRDT bromodomain 2 isoform b (K250 to E382 residues) expressed in bacterial expression system by bromoscan assay
MV4-11 [21] = assay: Antitumour activity against human MV4-11 cells xenografted in BALB/c nu/nu mouse assessed as upregulation of p21 expression level in tumor tissue at 150 mg/kg, po administered via gavage as a single dose measured after 6 hrs by western blot analysis; format: functional
[22] = Half-life in ICR mouse at 5 mg/kg, iv measured upto 24 hrs by LC-MS/MS analysis; format: ADME, organism-based; conditions: in vivo
[23] = target: T2, Bromodomain-containing protein 3; assay: Binding affinity to human partial length BRD3 BD1 (P24 to E144 residues) expressed in bacterial expression system by bromoscan assay
Target sequence in this assay (Q15059 whole entry, the tested form may be a part): as the sequence (Q15059 whole entry, the tested form may be a part) above

[24] = target: T4, Bromodomain testis-specific protein; assay: Binding affinity to human partial length BRDT bromodomain 1 isoform b (N21 to E137 residues) expressed in bacterial expression system by bromoscan assay
MV4-11 [25] = assay: Antitumour activity against human MV4-11 cells xenografted in BALB/c nu/nu mouse assessed as downregulation of c-Myc expression level in tumor tissue at 150 mg/kg, po administered via gavage as a single dose measured after 24 hrs by western blot analysis; format: functional; conditions: MV4-11, po
MV4-11 [26] = assay: Antitumour activity against human MV4-11 cells xenografted in BALB/c nu/nu mouse assessed as downregulation of c-Myc expression level in tumor tissue at 150 mg/kg, po administered via gavage as a single dose measured after 6 hrs by western blot analysis; format: functional; conditions: MV4-11, po
MV4-11 [27] = assay: Antitumour activity against human MV4-11 cells xenografted in BALB/c nu/nu mouse assessed as tumour growth inhibition at 150 mg/kg, po via gavage administered once daily for 21 days and measured every 2 to 3 days by vernier caliper method relative to control; format: functional; conditions: MV4-11, po, read-out: GI
[28] = Oral bioavailability in ICR mouse at 15 mg/kg measured upto 24 hrs by LC-MS/MS analysis; format: ADME, organism-based; conditions: in vivo
[29] = target: T1, Bromodomain-containing protein 4; assay: Binding affinity to human partial length BRD4 BD2 isoform long (K333 to E460 residues) expressed in bacterial expression system by bromoscan assay
[30] = target: T2, Bromodomain-containing protein 3; assay: Binding affinity to human partial length BRD3 BD2 (G306 to P416 residues) expressed in bacterial expression system by bromoscan assay
Target sequence in this assay (Q15059 whole entry, the tested form may be a part): as above

MV4-11 [31] = assay: Downregulation of p21 expression level in tumor tissue in BALB/c nu/nu mouse xenografted with human MV4-11 cells at 150 mg/kg, po administered via gavage as a single dose measured after 24 hrs by western blot analysis; format: functional; conditions: MV4-11, po
[32] = target: T3, Bromodomain-containing protein 2; assay: Binding affinity to human partial length BRD2 BD1 isoform 1 (K71 to N194 residues) expressed in bacterial expression system by bromoscan assay
Target sequence in this assay (P25440 whole entry, the tested form may be a part): as the sequence (P25440 whole entry, the tested form may be a part) above

[33] = Cmax in ICR mouse at 15 mg/kg, po measured upto 24 hrs by LC-MS/MS analysis; format: ADME, organism-based; design: dose 15 mg/kg, route oral; conditions: in vivo
[34] = target: T3, Bromodomain-containing protein 2; assay: Binding affinity to human partial length BRD2 BD2 isoform 1 (E348 to D455 residues) expressed in bacterial expression system by bromoscan assay
Target sequence in this assay (P25440 whole entry, the tested form may be a part): as above

[35] = target: T3, Bromodomain-containing protein 2; assay: Selectivity ratio of Kd for human partial length BRD2 BD1 isoform 1 (K71 to N194 residues) expressed in bacterial expression system to Kd for human partial length BRD2 BD2 isoform 1 (E348 to D455 residues) expressed in bacterial expression system
Target sequence in this assay (P25440 whole entry, looked up, the tested form may be a part): as the sequence (P25440 whole entry, the tested form may be a part) above

MV4-11 [36] = assay: Antitumour activity against human MV4-11 cells xenografted in BALB/c nu/nu mouse assessed as tumour growth inhibition administered via oral gavage once daily for 21 days and measured every 2 to 3 days by vernier caliper method; format: functional, cell-based
[37] = AUC (0 to t) in ICR mouse at 15 mg/kg, po measured upto 24 hrs by LC-MS/MS analysis; format: ADME, organism-based; design: time < 24 hr, dose 15 mg/kg, route oral; conditions: in vivo
[38] = Half-life in ICR mouse at 15 mg/kg, po measured upto 24 hrs by LC-MS/MS analysis; format: ADME, organism-based; conditions: in vivo
[39] = Volume of distribution at steady state in ICR mouse at 5 mg/kg, iv measured upto 24 hrs by LC-MS/MS analysis; format: ADME, organism-based; conditions: in vivo, read-out: Vdss
[40] = target: T1, Bromodomain-containing protein 4; assay: Binding affinity to human partial length BRD4 BD1 isoform long (N44 to E168 residues) expressed in bacterial expression system by bromoscan assay
[41] = Cmax in ICR mouse at 5 mg/kg, iv measured upto 24 hrs by LC-MS/MS analysis; format: ADME, organism-based; design: dose 5 mg/kg, route intravenous; conditions: in vivo
MV4-11 [42] = assay: Antitumour activity against human MV4-11 cells xenografted in BALB/c nu/nu mouse assessed as tumour growth inhibition at 100 mg/kg, po via gavage administered once daily for 21 days and measured every 2 to 3 days by vernier caliper method relative to control; format: functional; conditions: MV4-11, po, read-out: GI
MV4-11 [43] = assay: Antitumour activity against human MV4-11 cells xenografted in BALB/c nu/nu mouse assessed as tumour growth inhibition at 60 mg/kg, po via gavage administered once daily for 21 days and measured every 2 to 3 days by vernier caliper method relative to control; format: functional; conditions: MV4-11, po, read-out: GI
[44] = Toxicity in BALB/c nu/nu mouse xenografted with human MV4-11 cells assessed as decrease in body weight at 150 mg/kg, po via gavage once daily for 21 days and measured every 2 to 3 days relative to control; format: organism-based; design: scale not given: the % may be the effect or the level left; conditions: in vivo
[45] = target: T2, Bromodomain-containing protein 3; assay: Selectivity ratio of Kd for human partial length BRD3 BD1 (P24 to E144 residues) expressed in bacterial expression system to Kd for human partial length BRD3 BD2 (G306 to P416 residues) expressed in bacterial expression system
Target sequence in this assay (Q15059 2-726 limits assumed): as the sequence (Q15059 2-726 limits assumed) above

[46] = Toxicity in BALB/c nu/nu mouse xenografted with human MV4-11 cells assessed as decrease in body weight at 60 mg/kg, po via gavage once daily for 6 days and measured every 2 to 3 days relative to control; format: organism-based; design: scale not given: the % may be the effect or the level left; conditions: in vivo

CCn1cc(-c2ccc3c(c2)C(Nc2ccc(Cl)cc2)CCc2nnc(C)n2-3)cn1 (stereo not drawn)
Ki [1]: 14.8 nM | IC50 (MV4-11 [2]): 94.6 nM | Ki [3]: 8.2 nM | Ki [4]: 193 nM | Ki [5]: 99.7 nM | Ratio Ki [6]: 12 | IC50 (MM1.S): 63.5 nM | Ki [7]: 8.9 nM | Ki [8]: 77.2 nM

Cc1sc2c(c1C)C(c1ccc(Cl)cc1)=N[C@@H](CC(=O)Nc1ccc(O)cc1)c1nnc(C)n1-2 [BIRABRESIB]
Activity (MV4-11 [9]): Dose-dependent effect | inhibition (MV4-11 [10]): Dose-dependent effect | Activity (MV4-11 [11]): Dose-dependent effect | inhibition (HepG2 [12]): Dose-dependent effect | IC50 (MV4-11 [2]): 17.6 nM | inhibition (MV4-11 [13]): Dose-dependent effect | inhibition (HepG2 [14]): Dose-dependent effect | inhibition (HepG2 [15]): Dose-dependent effect | IC50 (MM1.S): 22.7 nM

Cc1nnc2n1-c1ccc(-c3cnn(C)c3)cc1[C@H](Nc1ccc(Cl)cc1)CC2
Selectivity ratio [16]: 21 | Selectivity ratio [17]: 7 | Activity (MV4-11 [9]): Dose-dependent effect | clearance [18]: 25 mL/min/kg | AUC(0-t) at 24 h [19]: 3320 ng·h/mL | Kd [20]: 3 nM | Activity (MV4-11 [21]): 46% | Ki [1]: 7.3 nM | inhibition (MV4-11 [10]): Dose-dependent effect | half-life [22]: 34.8 min | Kd [23]: 12 nM | Kd [24]: 64 nM | Activity (MV4-11 [11]): Dose-dependent effect | inhibition in vivo at 150 mg/kg (MV4-11 [25]): 43% | inhibition (HepG2 [12]): Dose-dependent effect | IC50 (MV4-11 [2]): 27 nM | inhibition in vivo at 150 mg/kg (MV4-11 [26]): 30% | inhibition in vivo at 150 mg/kg (MV4-11 [27]): 67% | bioavailability [28]: 59.1% | Kd [29]: 3.5 nM | Kd [30]: 2.6 nM | inhibition in vivo at 150 mg/kg (MV4-11 [31]): 18% | Kd [32]: 45 nM | Cmax [33]: 2210 ng/mL | Kd [34]: 1.2 nM | Ki [3]: 5.3 nM | inhibition (MV4-11 [13]): Dose-dependent effect | Ki [4]: 95.5 nM | Ki [5]: 77.9 nM | Selectivity ratio [35]: 38 | inhibition (HepG2 [14]): Dose-dependent effect | inhibition (MV4-11 [36]): Dose-dependent effect | AUC(0-t) at 24 h [37]: 5890 ng·h/mL | half-life [38]: 57 min | Ratio Ki [6]: 15 | inhibition (HepG2 [15]): Dose-dependent effect | Vd [39]: 0.94 L/kg | IC50 (MM1.S): 16.7 nM | Ki [7]: 3.1 nM | Kd [40]: 26 nM | Cmax [41]: 5420 ng/mL | inhibition in vivo at 100 mg/kg (MV4-11 [42]): 58% | inhibition in vivo at 60 mg/kg (MV4-11 [43]): 47% | Activity [44]: 7% | Selectivity ratio [45]: 5 | Ki [8]: 80 nM

Cc1nnc2n1-c1ccc(-c3cn[nH]c3)cc1C(Nc1ccc(Cl)cc1)CC2 (stereo not drawn)
Ki [1]: 15.9 nM | IC50 (MV4-11 [2]): 99.1 nM | Ki [3]: 13.9 nM | Ki [4]: 270 nM | Ki [5]: 114 nM | Ratio Ki [6]: 8 | IC50 (MM1.S): 259 nM | Ki [7]: 19.1 nM | Ki [8]: 126 nM

CCNC(=O)C[C@@H]1N=C(c2ccc(Cl)cc2)c2cc(OC)ccc2-n2c(C)nnc21 [MOLIBRESIB]
Activity [46]: 11%

Cc1nnc2n1-c1ccc(-c3cnoc3)cc1C(Nc1ccc(Cl)cc1)CC2 (stereo not drawn)
Ki [1]: 83.7 nM | IC50 (MV4-11 [2]): 6560 nM | IC50 (MM1.S): 7720 nM | Ki [8]: 232 nM
